Source: patent US20140348901A1, “COMBINATORIAL METHODS AND COMPOSITIONS FOR TREATMENT OF MELANOMA” (The Penn State Research Foundation, priority 2004, published 2014)

How the values were obtained:
UACC 903 cells [1] = experiment: BAY 43-9006 growth inhibition/IC-50 of UACC 903 melanoma cells (SRB); assay type: cell-based, human; conditions: 72 hours; read-out: IC-50, concentration that reduced UACC 903 cell survival by half
Experimental: To measure the growth inhibitory effects or IC-50 of BAY 43-9006 on UACC 903 cells, 5×10^3 cells/well were plated into 96-well plates. Following 24 hours, varying concentrations of BAY 43-9006 (0, 0.02, 0.1, 0.4, 1.6, 6.3, 25, or 100 uM) was added to duplicate 8-strip wells in the plate. After 72 hours of growth at 37° C. in a 5% CO2 humidified atmosphere, media was discarded and cells were fixed in 10% trichloroacetic acid. Surviving cells at each concentrations of the drug were calculated using the SRB binding assay (Stahl J M et al. Cancer Res. 63: 2881-90 (2003)).

[2] = system: wild type or mutant ^V599EB-Raf protein; experiment: pMek and pErk in HEK 293T cells expressing HA-tagged wild type or mutant B-Raf exposed to BAY 43-9006; assay type: cell-based, human; conditions: 5 uM, 2 hours
Experimental: The BAY 43-9006 compound used for these studies was synthesized as described in ref (Bankston D et al. Organic Process Res Dev. 6: 777-81 (2002)). To evaluate the inhibitory effects of BAY 43-9006 on wild type and mutant B-Raf, HEK 293T cells were transfected with HA-tagged wild type B-RAF, mutant ^V599EB-RAF or vector (pcDNA3) using Calcium Phosphate as described previously (Robertson G P et al. Proc Natl Acad Sci USA. 95: 9418-23 (1998)). Following transfection (72 hours) media was replaced with DMEM media supplemented with 10% FBS and 5 uM BAY 43-9006 or DMSO vehicle. Two hours later, protein lysates were collected for Western blot analysis. Levels of phosphorylated Mek and Erk were quantified from 3 independent blots and fold differences under different conditions were estimated after normalizing against an Erk 2 loading control.

[3] = system: mutant ^V599EB-Raf protein signaling; experiment: pMek and pErk Western blot in UACC 903 cells with increasing BAY 43-9006; assay type: cell-based, human
C8161 cells [4] = experiment: pMek and pErk levels in C8161 cells with BAY 43-9006; assay type: cell-based, human
UACC 903 cells [5] = experiment: Pretreatment of mice with BAY 43-9006, UACC 903 tumor development; assay type: in vivo, nude mice; conditions: 50 mg/kg i.p.
Experimental: (§1) Effect of BAY 43-9006 on tumor development was measured by subcutaneously injecting 5×10^6 UACC 903 or 1×10^6 1205 Lu cells into nude mice. After 6 days when a small tumor (50-100 mm^3) had developed, the mice received an intra peritoneal injection on alternate days consisting of 50 μl of vehicle (DMSO), or the drug BAY 43-9006 at concentrations of 10, 50 or 100 mg/kg body weight for UACC 903 cells and 50 mg/kg body weight for 1205 Lu cells. For studies involving pretreatment with BAY 43-9006, 50 mg/kg body weight of drug was intra peritoneally injected twice (−4 and −2 days) prior to subcutaneous injection of UACC 903 or 1205 Lu cells. The mechanism by which pharmacological inhibition of mutant ^V599EB-Raf delays tumor development was identified by comparing tumors of the same size developing in parallel. This was achieved by subcutaneous injection of 5×10^6 UACC 903 cells followed at day 6 by intra peritoneal injection every 2 days with 50 mg/kg of BAY 43-9006. For temporal and spatial matching of control DMSO with drug treated tumors, either 1×10^6, 2.5×10^6 or 5×10^6 million UACC 903 cells were subcutaneously injected and from day 6 treated intra peritoneally with DMSO vehicle every 2 days. Drug or vehicle treated tumors of the same size developing in parallel were harvested at days 9, 11, 13 and 15 for comparison. […]

1205 Lu cells = experiment: Pretreatment of mice with BAY 43-9006, 1205 Lu tumor development; assay type: in vivo, nude mice; conditions: 50 mg/kg i.p., 1205 Lu (not shown)
Experimental: as §1

UACC 903 tumors [6] = experiment: BAY 43-9006 on preexisting UACC 903 tumors in nude mice; assay type: in vivo
Experimental: (§2) Effect of BAY 43-9006 on tumor development was measured by subcutaneously injecting 5×10^6 UACC 903 or 1×10^6 1205 Lu cells into nude mice. After 6 days when a small tumor (50-100 mm^3) had developed, the mice received an intra peritoneal injection on alternate days consisting of 50 μl of vehicle (DMSO), or the drug BAY 43-9006 at concentrations of 10, 50 or 100 mg/kg body weight for UACC 903 cells and 50 mg/kg body weight for 1205 Lu cells. For studies involving pretreatment with BAY 43-9006, 50 mg/kg body weight of drug was intra peritoneally injected twice (−4 and −2 days) prior to subcutaneous injection of UACC 903 or 1205 Lu cells. The mechanism by which pharmacological inhibition of mutant ^V599EB-Raf delays tumor development was identified by comparing tumors of the same size developing in parallel. This was achieved by subcutaneous injection of 5×10^6 UACC 903 cells followed at day 6 by intra peritoneal injection every 2 days with 50 mg/kg of BAY 43-9006. For temporal and spatial matching of control DMSO with drug treated tumors, either 1×10^6, 2.5×10^6 or 5×10^6 […] UACC 903 cells were subcutaneously injected and from day 6 treated intra peritoneally with DMSO vehicle every 2 days. Drug or vehicle treated tumors of the same size developing in parallel were harvested at days 9, 11, 13 and 15 for comparison. At each time point, tumors from mice treated with vehicle or drug were harvested for analysis of cell proliferation, apoptosis and vascular development, as described previously (Stahl J M et al. Cancer Res. 64: 7002-10 (2004), Stahl J M et al. Cancer Res. 63: 2881-90 (2003)).
(§3) It is currently unknown whether targeting mutant ^V599EB-Raf in established preexisting melanoma tumors could retard tumor development, and if so, whether the mechanism is the same as that occurring when targeting ^V599EB-Raf in cells prior to tumor formation. Therefore, we next examined whether pharmacologically targeting B-Raf in preexisting melanoma tumors would inhibit tumor development by a similar mechanism. Five million UACC 903 cells, one million 1205 Lu cells or five million C8161 cells were subcutaneously injected into 4- to 6-week old female nude mice. On day 6, vehicle (DMSO) or BAY 43-9006 compound dissolved in vehicle (10, 50 or 100 mg/kg) was administered to mice via intra peritoneal injection every 48 hours. A 48 hour time period between drug administrations was chosen since inhibitory effects on the MAP kinase signaling pathway in UACC 903, 1205 Lu and C8161 cells persisted for at least that period (data not shown). Size of the developing tumors was measured using calipers on alternate days and the results are shown for UACC 903 cells in FIG. 4A and 1205 Lu cells in FIG. 15B. While all concentrations of the BAY 43-9006 compound slowed UACC 903 tumor development, only concentrations ≧50 mg/kg caused tumor development to plateau 7 days following the start of treatment (FIG. 4B).

1205 Lu tumors = experiment: BAY 43-9006 on preexisting 1205 Lu tumors in nude mice; assay type: in vivo; conditions: 50 mg/kg
Experimental: as §1, with “43-9006.” for “43-9006. For temporal and spatial matching of control DMSO with drug treated tumors, either 1×10^6, 2.5×10^6 or 5×10^6 million UACC 903 cells were subcutaneously injected and from day 6 treated intra peritoneally with DMSO vehicle every 2 days. Drug or vehicle treated tumors of the same size developing in parallel were harvested at days 9, 11, 13 and 15 for comparison.”
It is currently unknown whether targeting mutant ^V599EB-Raf in established preexisting melanoma tumors could retard tumor development, and if so, whether the mechanism is the same as that occurring when targeting ^V599EB-Raf in cells prior to tumor formation. […] Size of the developing tumors was measured using calipers on alternate days and the results are shown for UACC 903 cells in FIG. 4A and 1205 Lu cells in FIG. 15B. […]

C8161 cells [7] = experiment: BAY 43-9006 on preexisting C8161 tumors in nude mice; assay type: in vivo; conditions: C8161 (data not shown)
Text: as §3

phosphorylated Erk = experiment: In vivo pErk measurements in UACC 903 tumor sections (immunohistochemistry); design: species or system nude mice; conditions: 50 mg/kg, 9 days after start of treatment
Experimental: To quantitate changes in pErk levels in formalin-fixed, paraffin-embedded tumor sections, antigen retrieval was performed with 0.01 M citrate buffer at pH 6.0 for 20 minutes in a 95° C. water bath. Slides were cooled for 20 minutes, rinsed in PBS and then incubated in 3% H2O2 for 10 minutes to quench endogenous peroxidase activity. Next, sections were blocked with 1% BSA for 30 minutes and incubated with anti-pERK antibody at a 1:100 dilution (Cell Signaling Technologies, Beverly, Mass.) overnight at 4° C. Following rinsing in PBS, sections were incubated with biotinylated anti rabbit IgG for 1 hour, rinsed again in PBS, and incubated with peroxidase labeled streptavidine for 30 minutes. […] The average percentage of cells±SEM that stained positive for pErk was counted from a minimum of 6 different tumors with 4-6 fields counted per tumor.
To confirm that the BAY 43-9006 compound affected activity of the mutant ^V599EB-Raf signaling pathway in tumors, the percentage of cells expressing elevated levels of phosphorylated Erk was scored in tumors from mice 9 days after start of treatment with vehicle (DMSO) or vehicle containing 50 mg/kg BAY 43-9006 (FIG. 15C).

UACC 903 tumors [8] = experiment: Apoptosis, cell proliferation and vessel density in size- and time-matched UACC 903 tumors treated with BAY 43-9006; assay type: in vivo, nude mice
Experimental: as §2
Apoptosis measurements on formalin-fixed, paraffin-embedded tumor sections were undertaken using the TUNEL TMR Red Apoptosis kit from Roche (Manheim, Germany), as described previously (Stahl J M et al. Cancer Res. 64: 7002-10 (2004), Stahl J M et al. Cancer Res. 63: 2881-90 (2003)). Cell Proliferation rates in formalin-fixed tumor sections were measured using the RPN 20 cell proliferation kit (Amersham Biosciences, Piscataway, N.J.) that utilizes BrdU incorporation and immunocytochemistry. […] The number of BrdU stained cells were scored as the percentage of total cells of tumors treated with BAY 43-9006 or vehicle (DMSO). Quantification of vessels density using a purified rat anti-mouse CD31 (PECAM-1) monoclonal antibody (Pharmingen, San Diego, Calif.) has been described previously (Stahl J M et al. Cancer Res. 64: 7002-10 (2004), Stahl J M et al. Cancer Res. 63: 2881-90 (2003)). The proportional area of the tumors occupied by the vessels over the total area was calculated using the IP Lab imaging software program. For all tumor analyses, a minimum of 6 different tumors with 4-6 fields per tumor was analyzed and results represented as the average±SEM.

VEGF = VEGF secretion ELISA, UACC 903 or 1205 Lu cells; assay type: cell-based, human; conditions: BAY 43-9006 5, 10, 15 uM; UACC 903 and 1205 Lu
Experimental: To determine the amount of VEGF secreted by cells following siRNA-mediated knockdown of B-Raf protein or after treatment with BAY 43-9006, the human VEGF Quantikine kit (DVE00) was used (R&D Systems Inc., Minneapolis, Minn.). UACC 903 or 1205 Lu cells (5×10^5) nucleofected with the various siRNA were plated in 60 mm petri dishes and 24 hours later media replaced with DMEM containing 2% FBS. Following an additional 24 hours, media was again replaced and conditioned media for ELISA analysis was collected 24 and 48 hours later. For BAY 43-9006 studies. 3×10^5 UACC 903 or 1205 Lu cells were plated into 60 mm petri dishes and 24 hours later media was changed to DMEM containing 2% FBS. After an additional 24 hours, media was replaced with DMEM supplemented with 2% FBS alone or in combination with BAY 43-9006 (5, 10, 15 uM) or DMSO vehicle. After 12 or 24 hours, conditioned media was collected for ELISA analysis. The media was cleared by centrifugation at 14,000 rpm (4° C.) for 5 minutes and stored at −80° C. VEGF ELISA analysis was performed in triplicate on duplicate experiments according to the manufacturer's instructions.

advanced stage melanoma = conditions: cited from earlier work

## CNC(=O)c1cc(Oc2ccc(NC(=O)Nc3ccc(Cl)c(C(F)(F)F)c3)cc2)ccn1 [BAY 43-9006]
UACC 903 cells [1]
  IC50: 5 to 6 µM
[2]
  Fold reduction of phosphorylated Erk: 3-4 fold
  Fold reduction of phosphorylated Mek: 5-6 fold
[3]; UACC 903 and 1205 Lu cell lines
  Persistence of inhibitory effects on MAP kinase signaling: 2 to 3 days
[3]; UACC 903 cells, 2 hours, increasing concentrations
  Levels of phosphorylated (active) Mek and Erk: dose responsive manner
C8161 cells [4]
  pMek and pErk levels: inhibited
UACC 903 cells [5]
  Tumor development after pretreatment: significantly inhibited
1205 Lu cells
  Tumor development after pretreatment: significantly inhibited
UACC 903 tumors [6]; 10 mg/kg
  Tumor size on day 27: > 2,400 mm^3
UACC 903 tumors [6]; 10 mg/kg i.p. every 48 hours
  Delay of tumor development: ~1 week
UACC 903 tumors [6]; UACC 903, after a week of drug treatment
  Increase in tumor sizes from days 13-to-31: no statistically significant increase
UACC 903 tumors [6]; concentrations ≧50 mg/kg
  Tumor development plateau, days following the start of treatment: 7 days
UACC 903 tumors [6]; i.p. every 2 days from day 6
  Concentrations that reduce the tumorigenic potential of melanoma cells containing mutant ^V599EB-Raf: ≥ 50 mg/kg
1205 Lu tumors
  Plateau in tumor size, days: 17-to-31 days
C8161 cells [7]
  Kinetics of tumor formation: no difference
Phosphorylated Erk
  Fold fewer pErk positive cells than vehicle treated tumors: ~3 fold
UACC 903 tumors [8]; 50 mg/kg
  Tumor area occupied by apoptosis by day 15: up to 25%
  Vessel development at day 9 vs vehicle: statistically significant difference
UACC 903 tumors [8]; 50 mg/kg (data not shown)
  Tumor area undergoing apoptosis by day 20: ~50%
UACC 903 tumors [8]; preexisting tumors, 50 mg/kg
  Decrease in percentage of proliferating cells: 32-57%
VEGF
  VEGF secretion: dose dependent manner
Advanced stage melanoma; advanced stage melanoma patients, oral
  Efficacy of monotherapy: relatively ineffective
Advanced stage melanoma; in combination with paclitaxel and carboplatinum
  Response rate in patients: 50%
